Structures are written as SMILES.

This data set can be described thus: Analysis of solubility of paracetamol batches (Table 2). The note with it: limit: soluble in ethanol (95%) and in acetone, sparingly soluble in water, very slightly soluble in dichloro-methane and ether. The format is physicochemical. On the procedure:
For the analysis of solubility, the paracetamol obtained using the present invention should be soluble in ethanol (95%) and soluble in acetone, sparingly soluble in water, very slightly soluble in dichloro-methane and ether. For identification purpose, the IR spectra should match the standard IR spectrum. The impurities were determined according to European and Indian pharmacopeia.

Consider `CC(=O)Nc1ccc(O)cc1` [Ex. 9, N-acetyl-para-aminophenol], for which the Solubility entry is on record as “Complies”.

The values are drawn from patent publication US12103900B2, “Environment-friendly process for selective acylation of aminophenol” (LAXMI ORGANIC INDUSTRIES LTD, priority 2020, dated 2024).
